Data: ChEMBL document CHEMBL1221243, “Design, synthesis, and biological evaluation of a novel series of quercetin diacylglucosides as potent anti-MRSA and anti-VRE agents” (Bioorg Med Chem Lett, 2010)
Converted amounts (≈) assume the structure as drawn.

Assays:
Staphylococcus aureus [1] = assay: Antimicrobial activity against methicillin-resistant Staphylococcus aureus OM584 after 24 hrs by microdilution assay; assay type: functional; settings: OM584, 24 h
[2] = Inhibition of Escherichia coli DNA gyraseB calculated by AutoDock docking into the ATP binding site
Escherichia coli = assay: Antimicrobial activity against Escherichia coli K-12 after 24 hrs by microdilution assay; assay type: functional; settings: K-12, 24 h
Staphylococcus aureus [3] = assay: Antimicrobial activity against methicillin-sensitive Staphylococcus aureus 209P after 24 hrs by microdilution assay; assay type: functional
Staphylococcus aureus [4] = assay: Antimicrobial activity against methicillin-resistant Staphylococcus aureus COL after 24 hrs by microdilution assay; assay type: functional
Staphylococcus aureus [5] = assay: Antimicrobial activity against methicillin-resistant Staphylococcus aureus N315 after 24 hrs by microdilution assay; assay type: functional; settings: N315, 24 h
[6] = Inhibition of Escherichia coli DNA gyraseB assessed as inhibition of pBR322 supercoiling by densitometry
Staphylococcus aureus [7] = assay: Antimicrobial activity against methicillin-resistant Staphylococcus aureus OM481 after 24 hrs by microdilution assay; assay type: functional; settings: OM481, 24 h
Enterococcus [8] = assay: Antimicrobial activity against vancomycin-resistant Enterococcus NCTC 12201 after 24 hrs by microdilution assay; assay type: functional; settings: NCTC 12201, 24 h
Enterococcus [9] = assay: Antimicrobial activity against vancomycin-resistant Enterococcus FN-1 after 24 hrs by microdilution assay; assay type: functional; settings: FN-1, 24 h
Staphylococcus aureus [10] = assay: Antimicrobial activity against vancomycin intermediate-resistant Staphylococcus aureus Mu50 after 24 hrs by microdilution assay; assay type: functional; settings: Mu50, 24 h

| Structure (SMILES) | MIC (Staphylococcus aureus [1]) [µg/mL] | Ki [2] [nM] | MIC (Escherichia coli) [µg/mL] | MIC (Staphylococcus aureus [3]) [µg/mL] | MIC (Staphylococcus aureus [4]) [µg/mL] | MIC (Staphylococcus aureus [5]) [µg/mL] | IC50 [6] [nM] | MIC (Staphylococcus aureus [7]) [µg/mL] | MIC (Enterococcus [8]) [µg/mL] | MIC (Enterococcus [9]) [µg/mL] | MIC (Staphylococcus aureus [10]) [µg/mL] |
| --- | --- | --- | --- | --- | --- | --- | --- | --- | --- | --- | --- |
| CCn1cc(C(=O)O)c(=O)c2cc(F)c(N3CCNCC3)cc21 [NORFLOXACIN] | 128 (≈ 401 µM) | 0.09 | 0.25 (≈ 0.783 µM) | 0.5 (≈ 1.57 µM) | 1 (≈ 3.13 µM) | 2 (≈ 6.26 µM) | 90 | 64 (≈ 200 µM) |  |  |  |
| CN[C@H](CC(C)C)C(=O)N[C@H]1C(=O)N[C@@H](CC(N)=O)C(=O)N[C@H]2C(=O)N[C@H]3C(=O)N[C@H](C(=O)N[C@H](C(=O)O)c4cc(O)cc(O)c4-c4cc3ccc4O)[C@H](O)c3ccc(c(Cl)c3)Oc3cc2cc(c3O[C@@H]2O[C@H](CO)[C@@H](O)[C@H](O)[C@H]2O[C@H]2C[C@](C)(N)[C@H](O)[C@H](C)O2)Oc2ccc(cc2Cl)[C@H]1O [VANCOMYCIN] | 0.25 (≈ 0.173 µM) |  |  | 0.25 (≈ 0.173 µM) | 0.25 (≈ 0.173 µM) | 0.25 (≈ 0.173 µM) |  | 0.25 (≈ 0.173 µM) | > 128 | > 128 | 8 (≈ 5.52 µM) |
